Measured values taken from US20250333406A1, “SULFONYL CYCLIC DERIVATIVES, AND COMPOSITIONS AND METHODS THEREOF” (Lysoway Therapeutics, Inc., priority 2023, published 2025).

Test system: TFEB
Test: TFEB Nuclear Translocation Assay
Type: cell-based
Conditions: read-out: EC50 of TFEB activation

| SMILES | EC50 [nM] |
| --- | --- |
| O=S(=O)(c1ccc(C(F)F)cc1)n1nc(N2CCN(c3ncc(F)cn3)CC23CC3)c2c(Cl)cccc21 [Compound 78, 4-chloro-1-[4-(difluoromethyl)phenyl]sulfonyl-3-[7-(5-fluoropyrimidin-2-yl)-4,7-diazaspiro [2.5]octan-4-yl]indazole] | ≤ 1000 |
| CC(C)S(=O)(=O)c1ccc(S(=O)(=O)n2nc(N3CCN(c4ncc(F)cc4F)CC34CC4)c3c(F)cccc32)cc1 [Compound 26, 3-[7-(3,5-difluoro-2-pyridyl)-4,7-diazaspiro [2.5]octan-4-yl]-4-fluoro-1-(4-isopropylsulfonylphenyl) sulfonyl-indazole] | ≤ 1000 |
| CC(F)(F)c1ccc(S(=O)(=O)n2nc(N3CCN(c4ccc(Cl)cc4F)CC34CC4)c3c(Cl)cccc32)cc1 [Compound 124, 4-chloro-3-(7-(4-chloro-2-fluorophenyl)-4,7-diazaspiro[2.5]octan-4-yl)-1-((4-(1,1-difluoroethyl)phenyl)sulfonyl)-1H-indazole] | ≤ 1000 |
| CC(C)S(=O)(=O)c1ccc(S(=O)(=O)n2nc(N3CCN(c4ncc(F)cn4)CC3C3CC3)c3c(Cl)cccc32)cc1 (stereo not drawn) [Compound 50, 4-chloro-3-(2-cyclopropyl-4-(5-fluoropyrimidin-2-yl)piperazin-1-yl)-1-((4-(isopropylsulfonyl)phenyl)sulfonyl)-1H-indazole] | ≤ 1000 |
| CC(C)S(=O)(=O)c1ccc(S(=O)(=O)n2nc(N3CCN(c4ncc(Cl)s4)CC34CC4)c3c(Cl)cc(F)cc32)s1 [Compound 39, 5-chloro-2-(4-(4-chloro-6-fluoro-1-((5-(isopropylsulfonyl)thiophen-2-yl)sulfonyl)-1H-indazol-3-yl)-4,7-diazaspiro [2.5]octan-7-yl) thiazole] | ≤ 1000 |
| CC(F)(F)c1ccc(S(=O)(=O)n2nc(N3CCN(c4ncc(F)cn4)CC3C(C)(C)F)c3c(Cl)cccc32)cc1 (stereo not drawn) [Compound 105, 4-chloro-1-((4-(1,1-difluoroethyl)phenyl)sulfonyl)-3-(2-(2-fluoropropan-2-yl)-4-(5-fluoropyrimidin-2-yl)piperazin-1-yl)-1H-indazole] | ≤ 1000 |
| CC(C)S(=O)(=O)n1ccc(S(=O)(=O)n2nc(N3CCN(c4ncc(F)cc4F)CC34CC4)c3c(Cl)cc(F)cc32)c1 [Compound 158, 4-chloro-3-[7-(3,5-difluoro-2-pyridyl)-4,7-diazaspiro [2.5]octan-4-yl]-6-fluoro-1-(1-isopropylsulfonylpyrrol-3-yl) sulfonyl-indazole] | ≤ 1000 |
| O=S(=O)(c1ccc(C(F)F)cc1)n1nc(N2CCN(c3ncc(F)cn3)CC2C2CC2)c2c(Cl)cccc21 (stereo not drawn) [Compound 112, 4-chloro-3-[2-cyclopropyl-4-(5-fluoropyrimidin-2-yl)piperazin-1-yl]-1-[4-(difluoromethyl)phenyl]sulfonyl-indazole] | ≤ 1000 |
| CC(C)S(=O)(=O)c1ccc(S(=O)(=O)n2nc(N3CCOCC34CC4)c3c(Cl)cccc32)s1 [Compound 7, 4-[4-chloro-1-[(5-isopropylsulfonyl-2-thienyl)sulfonyl]indazol-3-yl]-7-oxa-4-azaspiro [2.5]octane] | ≤ 1000 |
| CC(C)S(=O)(=O)c1ccc(S(=O)(=O)n2nc(N3CCN(c4ncc(Cl)cn4)CC34CC4)c3c(Cl)cccc32)cc1 [Compound 2, 4-chloro-3-(7-(5-chloropyrimidin-2-yl)-4,7-diazaspiro [2.5]octan-4-yl)-1-((4-(isopropylsulfonyl)phenyl)sulfonyl)-1H-indazole] | ≤ 1000 |
| CC(C)S(=O)(=O)c1nc(S(=O)(=O)n2nc(N3CCN(c4ncc(F)cc4F)CC34CC4)c3c(F)ccc(F)c32)cs1 [Compound 194, 4-[3-[7-(3,5-difluoro-2-pyridyl)-4,7-diazaspiro [2.5]octan-4-yl]-4,7-difluoro-indazol-1-yl]sulfonyl-2-isopropylsulfonyl-thiazole] | 1000 to 10000 |
| [2H]c1c([2H])c(S(=O)(=O)n2nc(N3CCN(c4ncc(F)cn4)CC34CC4)c3c(Cl)cccc32)c([2H])c([2H])c1S(=O)(=O)C(C)C [Compound 64, 4-chloro-3-[7-(5-fluoropyrimidin-2-yl)-4,7-diazaspiro [2.5]octan-4-yl]-1-(2,3,5,6-tetradeuterio-4-isopropylsulfonyl-phenyl) sulfonyl-indazole] | ≤ 1000 |
| CC(F)(F)c1ccc(S(=O)(=O)n2nc(N3CCN(c4ccc(F)cc4F)CC34CC4)c3c(Cl)cccc32)cc1 [Compound 126, 4-chloro-1-((4-(1,1-difluoroethyl)phenyl)sulfonyl)-3-(7-(2,4-difluorophenyl)-4,7-diazaspiro[2.5]octan-4-yl)-1H-indazole] | ≤ 1000 |
| CC(C)S(=O)(=O)n1ccc(S(=O)(=O)n2nc(N3CCN(S(C)(=O)=O)CC34CC4)c3c(Cl)cc(F)cc32)c1 [Compound 183, 4-chloro-6-fluoro-1-((1-(isopropylsulfonyl)-1H-pyrrol-3-yl)sulfonyl)-3-(7-(methylsulfonyl)-4,7-diazaspiro [2.5]octan-4-yl)-1H-indazole] | 1000 to 10000 |
| CC(C)S(=O)(=O)n1ccc(S(=O)(=O)n2nc(N3CCN(CC(F)(F)F)CC34CC4)c3c(Cl)cc(F)cc32)c1 [Compound 59, 4-chloro-6-fluoro-1-(1-isopropylsulfonylpyrrol-3-yl)sulfonyl-3-[7-(2,2,2-trifluoroethyl)-4,7-diazaspiro[2.5]octan-4-yl]indazole] | ≤ 1000 |
| CC(C)S(=O)(=O)c1ccc(S(=O)(=O)n2nc(N3CCN(c4ncc(F)cn4)C[C@@H]3C(F)(F)F)c3c(Cl)cccc32)cc1 [Compound 68, 4-chloro-3-[(2R)-4-(5-fluoropyrimidin-2-yl)-2-(trifluoromethyl)piperazin-1-yl]-1-(4-isopropylsulfonylphenyl) sulfonyl-indazole] | ≤ 1000 |
| CC(C)S(=O)(=O)n1ccc(S(=O)(=O)n2nc(N3CCC(F)CC34CC4)c3c(Cl)cc(F)cc32)c1 (stereo not drawn) [Compound 192, 4-chloro-6-fluoro-3-(7-fluoro-4-azaspiro [2.5]octan-4-yl)-1-(1-isopropylsulfonylpyrrol-3-yl) sulfonyl-indazole] | ≤ 1000 |
| CC(C)S(=O)(=O)c1ccc(S(=O)(=O)n2nc(N3CCN(c4ncc(Cl)cn4)CC34CC4)c3c(F)cccc32)cc1 [Compound 15, 3-(7-(5-chloropyrimidin-2-yl)-4,7-diazaspiro [2.5]octan-4-yl)-4-fluoro-1-((4-(isopropylsulfonyl)phenyl)sulfonyl)-1H-indazole] | ≤ 1000 |
| CC(F)(F)C12CC(S(=O)(=O)n3nc(N4CCN(c5ncc(F)cn5)CC45CC5)c4c(Cl)cccc43)(C1)C2 [Compound 129, 4-chloro-1-((3-(1,1-difluoroethyl)bicycle [1.1.1]pentan-1-yl)sulfonyl)-3-(7-(5-fluoropyrimidin-2-yl)-4,7-diazaspiro [2.5]octan-4-yl)-1H-indazole] | ≤ 1000 |
| CC(C)S(=O)(=O)c1ccc(S(=O)(=O)n2nc(N3CCN(c4ncc(F)cc4F)CC34CC4)c3c(Cl)cc(F)cc32)cc1 [Compound 27, 4-chloro-3-[7-(3,5-difluoro-2-pyridyl)-4,7-diazaspiro [2.5]octan-4-yl]-6-fluoro-1-(4-isopropylsulfonylphenyl)sulfonyl-indazole] | ≤ 1000 |
| CC(F)(F)c1ccc(S(=O)(=O)n2nc(N3CCN(C(C)(C)CF)CC34CC4)c3c(Cl)cccc32)cc1 [Compound 128, 4-chloro-1-((4-(1,1-difluoroethyl)phenyl)sulfonyl)-3-(7-(1-fluoro-2-methylpropan-2-yl)-4,7-diazaspiro [2.5]octan-4-yl)-1H-indazole] | ≤ 1000 |
| CC(F)(F)c1ccc(S(=O)(=O)n2nc(N3CCN(c4ncc(F)cn4)CC3C(C)(C)C)c3c(Cl)cccc32)cc1 (stereo not drawn) [Compound 108, 3-[2-tert-butyl-4-(5-fluoropyrimidin-2-yl)piperazin-1-yl]-4-chloro-1-[4-(1,1-difluoroethyl)phenyl]sulfonyl-indazole] | ≤ 1000 |
| CC(C)S(=O)(=O)n1ccc(S(=O)(=O)n2nc(N3CCN(c4ncc(F)cc4F)CC34CC4)c3c(F)ccc(F)c32)c1 [Compound 144, 3-[7-(3,5-difluoro-2-pyridyl)-4,7-diazaspiro [2.5]octan-4-yl]-4,7-difluoro-1-(1-isopropylsulfonylpyrrol-3-yl) sulfonyl-indazole] | ≤ 1000 |
| CC(C)S(=O)(=O)c1ccc(S(=O)(=O)n2nc(N3CCN(c4ncc(F)cc4F)CC34CC4)c3c(F)ccc(F)c32)s1 [Compound 32, 3-[7-(3,5-difluoro-2-pyridyl)-4,7-diazaspiro [2.5]octan-4-yl]-4,7-difluoro-1-[(5-isopropylsulfonyl-2-thienyl)sulfonyl]indazole] | ≤ 1000 |
| CC(C)S(=O)(=O)c1ccc(S(=O)(=O)n2nc(N3CCC(OC(F)F)CC3C(F)(F)F)c3c(Cl)cccc32)cc1 (stereo not drawn) [Compound 86, 4-chloro-3-[4-(difluoromethoxy)-2-(trifluoromethyl)-1-piperidyl]-1-(4-isopropylsulfonylphenyl) sulfonyl-indazole] | ≤ 1000 |
| CC(C)S(=O)(=O)c1ccc(S(=O)(=O)n2nc(N3CCN(c4ccc(F)cn4)CC34CC4)c3c(F)cc(F)cc32)cc1 [Compound 19, 4,6-difluoro-3-[7-(5-fluoro-2-pyridyl)-4,7-diazaspiro [2.5]octan-4-yl]-1-(4-isopropylsulfonylphenyl) sulfonyl-indazole] | ≤ 1000 |
| CC(C)S(=O)(=O)c1ccc(S(=O)(=O)n2nc(N3CCCC34CC4)c3c(Cl)cccc32)s1 [Compound 17, 4-chloro-1-((5-(isopropylsulfonyl)thiophen-2-yl)sulfonyl)-3-(4-azaspiro [2.4]heptan-4-yl)-1H-indazole] | ≤ 1000 |
| CC(F)(F)c1ccc(S(=O)(=O)n2nc(N3CCN(c4ncc(F)cn4)C[C@@H]3C(F)(F)F)c3c(Cl)cccc32)cc1 (single isomer, unassigned) [Compound 107] | ≤ 1000 |
| CC(C)S(=O)(=O)n1ccc(S(=O)(=O)n2nc(N3CCC(N(C)C)CC34CC4)c3c(Cl)cc(F)cc32)c1 (stereo not drawn) [Compound 186, 4-[4-chloro-6-fluoro-1-(1-isopropylsulfonylpyrrol-3-yl)sulfonyl-indazol-3-yl]-N, N-dimethyl-4-azaspiro [2.5]octan-7-amine] | 1000 to 10000 |
| CC(C)S(=O)(=O)c1ccc(S(=O)(=O)n2nc(N3CCC(Cl)=CC3C(F)(F)F)c3c(Cl)cccc32)cc1 (stereo not drawn) [Compound 79, 4-chloro-3-[4-chloro-6-(trifluoromethyl)-3,6-dihydro-2H-pyridin-1-yl]-1-(4-isopropylsulfonylphenyl) sulfonyl-indazole] | ≤ 1000 |
